Measured values published in patent US5648336A (University of Colorado, priority 1994, dated 1997).
Where two headings read alike, the source gives them in different places. Square brackets hold non-standard residues; d marks the D form. Peptide text beside a SMILES is read from it. * marks the point of attachment. Adamantane1carbonyl = O=C(C12CC3CC(CC(C3)C1)C2)*; Oic = O=C(O)[C@@H]1C[C@@H]2CCCC[C@@H]2N1; dIgl = N[C@@H](C(=O)O)C1Cc2ccccc2C1; Hyp = O=C(O)[C@@H]1C[C@@H](O)CN1

Key:
[1] = test system: guinea pig ileum
Text: (§1) A change of one unit of pA2 value represents an order of magnitude change in potency.
(§2) On isolated smooth muscles, agonist potency is given as percent of BK potency; antagonist potency is given as pA2, and is underlined. In blood pressure assays, the number is the dose of peptide in micrograms that causes 50% reduction in the effect of BK intraarterially administered as a bolus mixture in a 500 g male rat; Ag indicates unquantitated agonist activity; Ant indicates unquantitated antagonist activity.

[2] = test system: isolated rat uterus
Text: as §1, §2

[3] = target: T1, B1 receptors (Oryctolagus cuniculus, UniProt P48748); experiment: B1 receptor bioassay, rabbit aorta strips contracted with des-Arg9-BK; assay type: cell-based; settings: 50% reduction of sustained contraction to 10^-7 M des-Arg9-BK; read-out: Rabbit Aorta p IC50 B1 receptors (converted)
T1 construct: The thorax was opened and the thoracic aorta carefully removed; from tissue; host or cells: rabbit thoracic aorta spiral strips
T1 sequence (P48748 1-352): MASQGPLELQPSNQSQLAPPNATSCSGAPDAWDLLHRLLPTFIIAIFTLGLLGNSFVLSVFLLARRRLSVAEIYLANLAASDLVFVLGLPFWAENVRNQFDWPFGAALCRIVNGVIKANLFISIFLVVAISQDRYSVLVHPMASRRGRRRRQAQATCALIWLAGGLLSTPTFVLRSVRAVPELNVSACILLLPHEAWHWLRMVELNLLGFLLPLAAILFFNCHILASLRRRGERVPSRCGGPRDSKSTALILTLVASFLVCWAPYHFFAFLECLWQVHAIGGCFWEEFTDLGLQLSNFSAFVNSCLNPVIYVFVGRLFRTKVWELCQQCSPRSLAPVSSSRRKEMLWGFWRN
Experimental: Male New Zealand white rabbits, weight range 2-3 kg, were killed by an overdose of pentobarbital i.v. The thorax was opened and the thoracic aorta carefully removed. […] The tissues were placed under 1 gm isometric tension and allowed to equilibrate for 1H. At time 1h, a concentration-effect curve was constructed to the selective B1 agonist des-Arg^9 -BK. This was repeated at time 3 hours. […] Once the contraction was sustained, the compound to be assayed was applied to the tissue bath in a cumulative manner. The concentration of the compound which produced a 50% reduction of the sustained contraction was calculated. The negative logarithm of this concentration was calculated and expressed as the […].

[4] = target: B2 receptors (Canis lupus familiaris, UniProt Q9BDQ4); settings: anaesthetized dog, i.v. infusion, BK challenge, n=3
Sequence of B2 receptors (Q9BDQ4 1-392): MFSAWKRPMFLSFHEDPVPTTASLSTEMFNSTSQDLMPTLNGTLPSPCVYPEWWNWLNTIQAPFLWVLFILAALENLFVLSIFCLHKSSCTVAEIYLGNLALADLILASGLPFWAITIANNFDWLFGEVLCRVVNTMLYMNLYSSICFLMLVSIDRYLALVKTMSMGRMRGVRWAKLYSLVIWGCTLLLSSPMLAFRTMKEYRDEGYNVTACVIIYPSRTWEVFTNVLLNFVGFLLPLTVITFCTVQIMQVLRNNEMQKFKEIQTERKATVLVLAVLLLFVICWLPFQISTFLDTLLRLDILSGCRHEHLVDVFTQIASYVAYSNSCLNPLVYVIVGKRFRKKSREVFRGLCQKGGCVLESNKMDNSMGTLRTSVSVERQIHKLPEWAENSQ
Experimental: Mongrel dogs of either sex, weight range 10-15 kg were used. These were anaesthetized with pentobarbital, 30 mg/kg i.v., and catheters were placed in one femoral artery and both femoral veins for the recording of blood pressure and infusion and injection of compounds.

[5] = target: T2, B1 receptors (Canis lupus familiaris, UniProt Q9BDQ5); experiment: Dog blood pressure, hypotensive response to des-Arg9-BK; assay type: in vivo; settings: anaesthetized dog, i.v. infusion, des-Arg9-BK challenge, n=3
T2 construct: Mongrel dogs of either sex, weight range 10-15 kg were used; from tissue; host or cells: anaesthetized mongrel dog, whole animal
T2 sequence (Q9BDQ5 1-350): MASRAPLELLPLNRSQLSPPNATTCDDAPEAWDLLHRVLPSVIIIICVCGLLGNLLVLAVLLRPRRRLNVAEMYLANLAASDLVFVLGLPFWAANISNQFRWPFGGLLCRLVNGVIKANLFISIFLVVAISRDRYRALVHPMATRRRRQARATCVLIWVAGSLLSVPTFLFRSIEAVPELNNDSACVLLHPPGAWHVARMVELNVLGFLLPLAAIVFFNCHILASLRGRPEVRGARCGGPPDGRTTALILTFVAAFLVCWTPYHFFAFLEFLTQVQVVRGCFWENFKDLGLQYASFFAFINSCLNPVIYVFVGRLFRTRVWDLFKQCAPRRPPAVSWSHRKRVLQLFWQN

[6] = test system: hypotensive action of bradykinin; experiment: Blood pressure in the anesthetized rat: inhibition of hypotensive action of bradykinin; assay type: in vivo; settings: intraarterial bolus mixture with BK, 500 g male rat; indicated approximately
Text: Potencies for the antagonists in this assay are not reported precisely, but rather are indicated approximately.
as §2

[7] = target: T3, Human B2 receptors (Homo sapiens, UniProt P30411); experiment: Human B2 binding, cloned receptor in CHO cell membranes, 3H-bradykinin; settings: CHO clone S34f membranes, 0.3 nM 3H-Bradykinin, room temperature 45 min; read-out: Human Receptor Clone B2 receptor binding (Ki) (converted)
T3 construct: expressed in transfected cells; membranes used
T3 sequence (P30411 1-364 isoform P30411-2): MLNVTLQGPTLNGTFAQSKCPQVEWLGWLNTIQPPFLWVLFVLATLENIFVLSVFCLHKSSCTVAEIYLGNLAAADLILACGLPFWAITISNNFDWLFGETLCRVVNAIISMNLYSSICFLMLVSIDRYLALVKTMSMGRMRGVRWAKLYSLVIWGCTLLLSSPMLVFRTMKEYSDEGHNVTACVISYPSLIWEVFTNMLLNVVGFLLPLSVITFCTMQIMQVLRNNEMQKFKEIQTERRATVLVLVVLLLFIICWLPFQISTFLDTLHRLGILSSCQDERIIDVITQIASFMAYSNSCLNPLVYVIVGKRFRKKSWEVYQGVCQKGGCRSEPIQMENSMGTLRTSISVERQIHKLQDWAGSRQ
Text: Human B2 receptors were cloned and expressed in Chinese hamster ovary cells. RNA was isolated from human lung fibroblasts (CCD-16 LU obtained from the ATCC) using the method of Chirgwin et al (Biochemistry 18:5294 (1979)). The RNA was transcribed into cDNA using MMLV reverse transcriptase, the primer […] and the procedure of Maniatis (Molecular Cloning Cold Spring Harbor Laboratory (1982)). The human B2 receptor cDNA was selectively amplified using nested PCR. The first round PCR used the two primers […] and […] and Taq DNA polymerase (Promega). Twenty-five rounds of PCR were done using the following conditions: 94° C., 1 minute for denaturation, 50° C., 1 minute for annealing followed by 72° C., 3 minutes for extension. Excess primers were removed with a Centricon 30 miniconcentrator. A portion of this first round reaction was used as a template in a second round of PCR using the following primers […] and […]. The number of rounds of PCR and the conditions were the same as those used for the first round. The DNA obtained after this second round was digested with the restriction enzymes Hind III and Xba I using standard methodology. Cesium chloride-purified pRc/CMV (Invitrogen) was also digested with Hind III and Xba I using standard methodology. The products of the two digests were resolved on a 1% low melt agarose gel. The human B2 receptor DNA (approximately 1.1 kb) and the pRc/CMV DNA (approximately 5.5 kb) were excised from the gel. The gel slices containing these DNAs were heated at 65° C. and aliquots combined in a reaction containing T4 DNA ligase. The reaction was incubated overnight at 15° C.
An aliquot of this reaction was used to transform frozen competent E. coli DH5α cells (GibcoBRL). Transformants containing the human B2 receptor DNA were selected on LB+amp plates. One of the transformants was selected and the sequence of the human B2 receptor DNA insert determined using the Sequenase enzyme (United States Biochemical) according to the manufacturer's instructions. This sequence was compared to the sequence of Hess et al (Biochemical and Biophysical Research Communications 184:260 1992)). […] The human BK2 receptor-pRc/CMV plasmid was transfected into CHO-k1 cells using the Lipofectamine reagent (GibcoBRL).
Cells containing the receptor were grown to confluence and harvested by scraping into PBS and homogenized. Membranes were prepared by centrifugation in 25 mM TES pH6.8 containing 1 mM 1.10 Phenanthroline. The final pellet was resuspended in assay buffer (25 mM TES, 1 mM 1.10 Phenanthroline, 1 mM DTT, […] Captopril, 0.1% BSA pH=6.8) and frozen. […] Incubation was carried out at room temperature for 45 min. The assay was terminated by filtration through a polyethylenimine soaked G-A filter. Radioactivity was measured on a Wallac 1450 MicroBeta LSC.
The Kd for the receptor was determined by kinetic analysis of on and off rates utilizing a single exponential decay off rate. Ki 's for compounds were calculated using the following equation: Ki =IC50 /(1+[L]/Kd), where L=free ligand concentration.

[8] = guinea pig ileum, vs double ED50 dose of bradykinin

N=C(N)NCCC[C@@H](N)C(=O)N[C@@H](CCCNC(=N)N)C(=O)N1CCC[C@H]1C(=O)N1C[C@H](O)C[C@H]1C(=O)NCC(=O)N[C@H](C(=O)N[C@@H](CO)C(=O)N[C@@H](C(=O)N1[C@H](C(=O)N[C@@H](CCCNC(=N)N)C(=O)O)C[C@@H]2CCCC[C@@H]21)C1Cc2ccccc2C1)C1Cc2ccccc2C1 [Compound 1, DArg-Arg-Pro-Hyp-Gly-Iglb-Ser-DIglb-O ic-Arg]
Ileum Activity, antagonist potency given as pA2 [1]: 7.9
Uterus Activity, antagonist potency given as pA2 [2]: 8.5
IC50 [3]: 251 nM
Mean ED50, B2 receptor-mediated hypotensive response [4]: 0.03 mg/kg/min
Mean ED50, B1 receptor-mediated hypotensive response [5]: 0.24 mg/kg/min

N=C(N)NCCC[C@@H](N)C(=O)N[C@@H](CCCNC(=N)N)C(=O)N1CCC[C@H]1C(=O)N1C[C@H](O)C[C@H]1C(=O)NCC(=O)N[C@@H](Cc1cccs1)C(=O)N[C@@H](CO)C(=O)N[C@@H](C(=O)N1[C@H](C(=O)N[C@@H](CCCNC(=N)N)C(=O)O)C[C@@H]2CCCC[C@@H]21)C1Cc2ccccc2C1 [Compound 7, DArg-Arg-Pro-Hyp-Gly-Thi-Ser-DIglb-Oic-Arg]
Ileum Activity, antagonist potency given as pA2 [1]: 7.4
IC50 [3]: 141 nM
Mean ED50, B2 receptor-mediated hypotensive response [4]: 0.17 mg/kg/min
Mean ED50, B1 receptor-mediated hypotensive response [5]: 0.35 mg/kg/min

N=C(N)NCCC[C@@H](N)C(=O)N[C@@H](CCCNC(=N)N)C(=O)N1CCC[C@H]1C(=O)N1C[C@H](O)C[C@H]1C(=O)NCC(=O)N[C@@H](Cc1cccs1)C(=O)N[C@@H](CO)C(=O)N[C@@H](C(=O)N(CC(=O)N[C@@H](CCCNC(=N)N)C(=O)O)C1Cc2ccccc2C1)C1Cc2ccccc2C1 [Compound 28, DArg-Arg-Pro-Hyp-Gly-Thi-Ser-DIgl-Nigb-Arg]
Ileum Activity, antagonist potency given as pA2 [1, 8]: 6.5
Uterus Activity, agonist potency given as percent of BK potency ([2]; isolated rat uterus): 48.6%
Blood Pressure: dose of peptide that causes 50% reduction in the effect of BK [6]: 0.05 micrograms

N=C(N)NCCC[C@H](NC(=O)[C@@H]1C[C@@H]2CCCC[C@@H]2N1C(=O)[C@H](NC(=O)[C@H](CO)NC(=O)[C@H](Cc1ccccc1)NC(=O)CNC(=O)[C@@H]1C[C@@H](O)CN1C(=O)[C@@H]1CCCN1C(=O)[C@H](CCCNC(=N)N)NC(=O)[C@@H](CCCNC(=N)N)NC(=O)C12CC3CC(CC(C3)C1)C2)C1Cc2ccccc2C1)C(=O)O [Compound 53, Aca-DArg-Arg-Pro-Hyp-Gly-Phe-Ser-DIglb-Oic-Arg] (Adamantane1carbonyl-[dR]RP[Hyp]GFS[dIgl][Oic]R-OH)
Ileum Activity, antagonist potency given as pA2 [1]: 7.4
Uterus Activity, antagonist potency given as pA2 [2]: 8.2
IC50 [3]: 1260 nM
Ki [7]: 0.0141 nM

N=C(N)NCCC[C@H](NC(=O)[C@@H]1C[C@@H]2CCCC[C@@H]2N1C(=O)[C@H](NC(=O)[C@H](CO)NC(=O)[C@H](Cc1cccs1)NC(=O)CNC(=O)[C@@H]1C[C@@H](O)CN1C(=O)[C@@H]1CCCN1C(=O)[C@H](CCCNC(=N)N)NC(=O)[C@@H](CCCNC(=N)N)NC(=O)CC12CC3CC(CC(C3)C1)C2)C1Cc2ccccc2C1)C(=O)O [Compound 56, Aaa-DArg-Arg-Pro-Hyp-Gly-Thi-Ser-DIglb-Oic-Arg]
Ileum Activity, antagonist potency given as pA2 [1]: 7.8
Uterus Activity, antagonist potency given as pA2 [2]: 7.7
IC50 [3]: 692 nM
Ki [7]: 0.398 nM

COc1cc(C=CC(=O)N[C@H](CCCNC(=N)N)C(=O)N[C@@H](CCCNC(=N)N)C(=O)N2CCC[C@H]2C(=O)N2C[C@H](O)C[C@H]2C(=O)NCC(=O)N[C@@H](Cc2cccs2)C(=O)N[C@@H](CO)C(=O)N[C@@H](C(=O)N2[C@H](C(=O)N[C@@H](CCCNC(=N)N)C(=O)O)C[C@@H]3CCCC[C@@H]32)C2Cc3ccccc3C2)cc(OC)c1O [Compound 60, Sin-DArg-Arg-Pro-Hyp-Gly-Thi-Ser-DIglb-Oic-Arg]
Ileum Activity, antagonist potency given as pA2 [1]: 7.3
Uterus Activity, antagonist potency given as pA2 [2]: 8.3
IC50 [3]: 2090 nM
Ki [7]: 0.0692 nM

Aca-DArg-Arg-Pro-Hyp-Gly-Thi-Ser-DHigb-Oic-Arg [Compound 124]
Ileum Activity, antagonist potency given as pA2 [1, 8]: 7.7
Blood Pressure: dose of peptide that causes 50% reduction in the effect of BK [6]: 0 micrograms

DArg-Arg-Pro-Hyp-Gly-Thi-Ser-DIglb-Dic-Arg [Compound 41]
Blood Pressure: dose of peptide that causes 50% reduction in the effect of BK [6]: 50 micrograms
